Patent US7326689B2, “Pseudomycins useful against plant diseases” (Eli Lilly and Company, priority 2000, dated 2008)
Where “and” joins values, the source holds several entries; their conditions need not be identical. Identical values can stand only once.

Key:
Test in all cases: Antifungal growth assay in potato dextrose broth, 24-well
Type in all cases: cell-based
Drechslera portulacae = conditions: 3x assays
Procedure: (§1) Fungi to be tested were propagated on potato dextrose agar (PDA) plates at room temperature. Stock solutions of pseudomycins and depsipeptide were suspended in dimethylsulfoxide (DMSO) (Sigma) at 5 mg/ml and stored at −20C. Serial dilutions of compounds were done the day of the experiment. All serial dilutions were made in DMSO. […] These are noted in the raw data section.
(§2) Assays were performed in 24-well cell culture clusters (Costar 3524), with 990 ul potato dextrose broth (PDB, Difco) and 10 ul of the compound to be tested in each well. Initial concentrations tested were 50-1.56 ug/ml (final concentration of pseudomycin). Actual concentrations of pseudomycins tested were 50, 25, 12.5, 6.25, 3.12 and 1.56 ug/ml. Each well was inoculated with the appropriate fungus. Unless noted, the fungal inoculum consisted of an ˜4 mm^2 piece of PDA with fungal mycelium. The exceptions were as follows. Ustilago maydis: this fungus grows much like a yeast on PDA, and cells were scraped from the PDA stock plate, resuspended in PDB and 10 ul inoculum added to each well. Monilinia sp.: this fungal mycelium grows as a very loose sheet on top of PDA and would not adhere to agar blocks. Fungal mycelium was ground with a metal rod in 500 ul PDB and 10 ul inoculum was added to each well. Mycosphaeella fijiensis, Septoria passerinii, Septoria triticii: these fungi all grow very slowly and the results were difficult to score if a small piece of agar with fungal mycelium on it was used as an inoculum. For these fungi, the mycelium was ground with a metal rod in 500 ul PDB and 10 ul inoculum was added to each well.
(§3) Wells were scored for fungal growth at two days and five days. Some slow growing fungi were scored at later days for growth because assessment was not possible at two or five days. Growth was scored by comparison to a control consisting of fungus inoculated into 990 ul potato dextrose broth and 10 ul of DMSO (Dimethylsulfoxide). An additional control consisting of fungal inoculum in PDB only was performed to ensure that the DMSO was not inhibitory to fungal growth.
(§4) For assays that were repeated, new stock solutions were made from a second shipment of pseudomycins. Note that pseudomycin B′ and depsipeptide stock solutions were remade from first shipment materials because these were not included in the second shipment. […] Actual concentrations of pseudomycins tested were 2, 1, 0.5, 0.25, 0.125 and 0.0625 ug/ml. A-PO4 and A-FB=pseudomycin A phosphate salt and free base respectively.
(§5) Table 2: Two day results—concentration indicated is lowest level of compound (ug /ml) that results is no growth. NI, no inhibition; p (partial), at least 50% inhibited; -, not determined. If number of assays was greater than one, number of assays performed on the fungus is noted in parentheses. For several slow-growing fungi, days elapsed before observation (if different than two) are noted.
(§6) Table 3: Five day results—concentration indicated is lowest level of compound (ug /ml) that results in no growth. NI, no inhibition; p (partial), at least 50% inhibited; -, not performed on the fungus is noted in parentheses. For several slow-growing fungi, days elapsed before observation (if different than five) are noted.

Geotrichim candidum = conditions: 3x assays
Procedure: as §1, §2, §3, §4, §5, §6

Monilinia sp. = conditions: 2x assays
Procedure: as §1, §2, §3, §4, §5, §6

[1] = system: Mycosphaeella fijiensis (8088/88); conditions: 3x assays
Procedure: as §1, §2, §3, §4, §5, §6

[2] = system: Mycosphaeella fijiensis (Sigatoka); conditions: 3x assays
Procedure: as §1, §2, §3, §4, §5, §6

Penicillium roqueforti = conditions: 3x assays
Procedure: as §1, §2, §3, §4, §5, §6

Rhizoctonia solani = conditions: 2x assays
Procedure: as §1, §2, §3, §4, §5, §6

Septoria passerinii = conditions: 3x assays
Procedure: as §1, §2, §3, §4, §5, §6

Septoria tritici = conditions: 3x assays
Procedure: as §1, §2, §3, §4, §5, §6

Ustilago maydis = conditions: 3x assays
Procedure: as §1, §2, §3, §4, §5, §6

Alternaria helianthi = system: Alternaria helianthi; design: key: NI, no inhibition; p (partial), at least 50% inhibited; conditions: 2x assays
Procedure: as §1, §2, §3, §4, §5, §6

Aphanomyces sp. = system: Aphanomyces sp.; design: key: NI, no inhibition; p (partial), at least 50% inhibited; conditions: 2x assays
Procedure: as §1, §2, §3, §4, §5, §6

Diplodia natalensis = system: Diplodia natalensis; design: key: NI, no inhibition; p (partial), at least 50% inhibited
Procedure: as §1, §2, §3, §4, §5, §6

Drechslera teres = system: Drechslera teres; design: key: NI, no inhibition; p (partial), at least 50% inhibited
Procedure: as §1, §2, §3, §4, §5, §6

[3] = system: Fusarium oxysporum cubense; design: key: NI, no inhibition; p (partial), at least 50% inhibited
Procedure: as §1, §2, §3, §4, §5, §6

Fusarium solani = system: Fusarium solani; design: key: NI, no inhibition; p (partial), at least 50% inhibited
Procedure: as §1, §2, §3, §4, §5, §6

Phoma chrysamthecola = system: Phoma chrysamthecola; design: key: NI, no inhibition; p (partial), at least 50% inhibited; conditions: five day results
Procedure: as §1, §2, §3, §4, §5, §6

Phytophthora cinnemani = system: Phytophthora cinnemani; design: key: NI, no inhibition; p (partial), at least 50% inhibited
Procedure: as §1, §2, §3, §4, §5, §6

Phytophthora ultimum = system: Phytophthora ultimum; design: key: NI, no inhibition; p (partial), at least 50% inhibited
Procedure: as §1, §2, §3, §4, §5, §6

Stagonospora nodorum = system: Stagonospora nodorum; design: key: NI, no inhibition; p (partial), at least 50% inhibited
Procedure: as §1, §2, §3, §4, §5, §6

Tapesia acuformis = system: Tapesia acuformis; design: key: NI, no inhibition; p (partial), at least 50% inhibited; conditions: 2x assays
Procedure: as §1, §2, §3, §4, §5, §6

[4] = Table 3 (five day results), observed at 9 day
[5] = Table 2 (two day results), observed at 7 day
[6] = Table 3 (five day results), observed at 21 days

Measured: lowest level of compound that results in no growth

Pseudomycin B
0.125 µg/mL: [1]; Table 3 (five day results), observed at 21 days, listed as pseudomycin B
3.12 µg/mL: Geotrichim candidum; five day results
1 µg/mL: [2]; [6]
0.0625 µg/mL: Septoria tritici; five day results, listed as pseudomycin B
NI: Alternaria helianthi; two day results | Diplodia natalensis; five day results | Diplodia natalensis; two day results | Drechslera teres; five day results | Drechslera teres; two day results | [3]; five day results | [3]; two day results | Fusarium solani; five day results | Phytophthora cinnemani; five day results | Phytophthora cinnemani; two day results | Phytophthora ultimum; five day results | Phytophthora ultimum; two day results | Stagonospora nodorum; five day results | Stagonospora nodorum; two day results | Tapesia acuformis; five day results | Tapesia acuformis; two day results
1.56 µg/mL: Geotrichim candidum; two day results
0.5 µg/mL: [2]; [5] | Penicillium roqueforti; two day results | Ustilago maydis; five day results | Ustilago maydis; two day results
6.25 µg/mL: Monilinia sp.; five day results | Penicillium roqueforti; five day results | Rhizoctonia solani; two day results
0.06 µg/mL: Drechslera portulacae; two day results | [1]; [5] | Septoria passerinii; two day results | Septoria tritici; five day results, listed as B | Septoria tritici; two day results
0.12 µg/mL: [1]; Table 3 (five day results), observed at 21 days, listed as B
0.0625 µg/mL and 0.06 µg/mL: Drechslera portulacae; [4] | Septoria passerinii; five day results, listed as B
p at 50: Aphanomyces sp.; two day results | Fusarium solani; two day results | Phoma chrysamthecola
3.13 µg/mL: Monilinia sp.; two day results
50 µg/mL: Rhizoctonia solani; five day results | Alternaria helianthi; five day results | Aphanomyces sp.; five day results

Pseudomycin B′
6.25 µg/mL: Rhizoctonia solani; five day results | Rhizoctonia solani; two day results
25 µg/mL: Geotrichim candidum; five day results | Geotrichim candidum; two day results | Monilinia sp.; five day results | Monilinia sp.; two day results | Alternaria helianthi; five day results | Alternaria helianthi; two day results | Aphanomyces sp.; two day results
1 µg/mL: [1]; [6] | [2]; [6]
p at 50: Phoma chrysamthecola
0.25 µg/mL: Drechslera portulacae; [4]
0.5 µg/mL: [1]; [5] | [2]; [5] | Septoria passerinii; five day results | Septoria passerinii; two day results | Septoria tritici; five day results | Septoria tritici; two day results
NI: Aphanomyces sp.; five day results | Diplodia natalensis; five day results | Diplodia natalensis; two day results | Drechslera teres; five day results | Drechslera teres; two day results | [3]; five day results | [3]; two day results | Fusarium solani; five day results | Fusarium solani; two day results | Phytophthora cinnemani; five day results | Phytophthora cinnemani; two day results | Phytophthora ultimum; five day results | Phytophthora ultimum; two day results | Stagonospora nodorum; five day results | Stagonospora nodorum; two day results | Tapesia acuformis; five day results | Tapesia acuformis; two day results
0.12 µg/mL: Drechslera portulacae; two day results
1.56 µg/mL: Penicillium roqueforti; five day results | Penicillium roqueforti; two day results | Ustilago maydis; two day results
3.12 µg/mL: Ustilago maydis; five day results
